# Data taken from patent US9040523B2, “Antifungal 5,6-dihydro-4H-pyrrolo[1,2-α][1,4]-benzodiazepines and 6H-pyrrolo[1,2-α][1,4]benzodiazepines substituted with benzene derivatives” (JANSSEN PHARMACEUTICA NV, priority 2010, dated 2015).
# What was measured:
# CYP2D6 = CYP2D6 (Homo sapiens, UniProt P10635); experiment: Cytochrome P450 inhibition, Protocol A, cDNA expressed proteins, fluorogenic substrate; format: in vitro ADME; details: % inhibition at 10 μM; substrate AMMC; cDNA expressed protein
# Sequence of CYP2D6 (P10635 whole entry): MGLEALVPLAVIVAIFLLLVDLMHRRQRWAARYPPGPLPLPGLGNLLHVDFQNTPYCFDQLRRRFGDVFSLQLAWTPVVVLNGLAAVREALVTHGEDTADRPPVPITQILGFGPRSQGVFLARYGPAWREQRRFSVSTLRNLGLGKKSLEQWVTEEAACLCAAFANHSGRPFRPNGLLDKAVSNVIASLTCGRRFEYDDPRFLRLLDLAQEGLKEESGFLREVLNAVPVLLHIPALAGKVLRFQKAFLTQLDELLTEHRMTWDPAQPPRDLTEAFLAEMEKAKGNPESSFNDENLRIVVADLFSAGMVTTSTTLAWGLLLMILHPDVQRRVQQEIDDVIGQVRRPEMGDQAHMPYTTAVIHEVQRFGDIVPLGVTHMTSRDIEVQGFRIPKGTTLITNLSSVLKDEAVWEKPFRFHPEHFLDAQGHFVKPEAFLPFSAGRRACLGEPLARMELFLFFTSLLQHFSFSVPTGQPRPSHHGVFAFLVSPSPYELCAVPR
# Procedure: (§1) All fluorogenic based assays were performed in Black Costar 96-well plates according to Crespi et al 1997 with minor modifications (Crespi C L, Miller V P & Penman B W (1997). Microtiter plate assays for inhibition of human, drug-metabolizing cytochromes P450. Anal. Biochem. Vol 248, 1898-1900). Assay conditions are outlined in Table 5a. For cytochrome P450 3A4, three different fluorogenic substrates were used. Each reaction mixture consisted of the appropriate concentration of enzyme, NADPH-generating system (“NADPH” means β-nicotinamide adenine dinucleotide phosphate, reduced), substrate in sodium/potassium buffer (pH 7.4). For each cytochrome P450 batch Michealis-Menten kinetics were determined using 11 concentrations.
# (§2) Thereafter, further dilutions were made in acetonitrile. […] The compounds were serially diluted to give final concentrations ranging from 1 nM to 10 μM. The reaction mixtures, whereby 1 μL of buffer was replaced by compound solution, were pre-warmed for 5 min at 37° C. and the reaction was initiated by the addition of β-nicotinamide adenine dinucleotide phosphate (NADP+). Reactions were terminated by addition of stopping reagent and the fluorescence was measured using a Fluoroscan (Labsystems, Brussel, Belgium).
# (§3) In Table 5a, the following abbreviations were used: 3-cyano-7-ethocycoumarin (CEC), 7-methoxy-4-trifluoromethylcoumarin (MFC), 3-[2-(N,N-diethyl-N-methylamino)ethyl]-7-methoxy-4-methylcoumarin (AMMC), 7-benzyloxy-trifluoromethyl coumarin (BFC), 7-benzyloxyquinoline (BQ) and dibenzyl fluorescein (DBF).
# CYP1A2 = biological target: T1, CYP1A2 (Homo sapiens, UniProt P05177); experiment: as above; format: in vitro ADME; details: % inhibition at 10 μM; substrate CEC; cDNA expressed protein
# T1 sequence (P05177 1-516): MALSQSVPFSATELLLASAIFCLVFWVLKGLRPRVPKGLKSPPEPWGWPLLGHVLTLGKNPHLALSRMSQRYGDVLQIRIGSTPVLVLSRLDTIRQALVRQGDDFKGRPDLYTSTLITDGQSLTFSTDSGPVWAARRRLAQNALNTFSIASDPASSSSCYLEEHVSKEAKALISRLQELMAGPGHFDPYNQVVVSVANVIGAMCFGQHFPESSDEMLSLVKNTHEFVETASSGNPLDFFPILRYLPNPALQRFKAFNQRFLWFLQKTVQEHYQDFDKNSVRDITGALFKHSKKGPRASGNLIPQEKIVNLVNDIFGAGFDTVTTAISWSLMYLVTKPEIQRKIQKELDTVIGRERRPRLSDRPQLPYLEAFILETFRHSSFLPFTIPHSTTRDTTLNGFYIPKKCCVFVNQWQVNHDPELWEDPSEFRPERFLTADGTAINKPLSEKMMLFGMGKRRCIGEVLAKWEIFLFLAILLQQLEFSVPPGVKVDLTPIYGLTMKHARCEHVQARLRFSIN
# Procedure: as §1, §2, §3
# CYP2C9 = CYP2C9 (Homo sapiens, UniProt P11712); experiment: as above; format: in vitro ADME; details: % inhibition at 10 μM; substrate MFC; cDNA expressed protein
# Sequence of CYP2C9 (P11712 whole entry): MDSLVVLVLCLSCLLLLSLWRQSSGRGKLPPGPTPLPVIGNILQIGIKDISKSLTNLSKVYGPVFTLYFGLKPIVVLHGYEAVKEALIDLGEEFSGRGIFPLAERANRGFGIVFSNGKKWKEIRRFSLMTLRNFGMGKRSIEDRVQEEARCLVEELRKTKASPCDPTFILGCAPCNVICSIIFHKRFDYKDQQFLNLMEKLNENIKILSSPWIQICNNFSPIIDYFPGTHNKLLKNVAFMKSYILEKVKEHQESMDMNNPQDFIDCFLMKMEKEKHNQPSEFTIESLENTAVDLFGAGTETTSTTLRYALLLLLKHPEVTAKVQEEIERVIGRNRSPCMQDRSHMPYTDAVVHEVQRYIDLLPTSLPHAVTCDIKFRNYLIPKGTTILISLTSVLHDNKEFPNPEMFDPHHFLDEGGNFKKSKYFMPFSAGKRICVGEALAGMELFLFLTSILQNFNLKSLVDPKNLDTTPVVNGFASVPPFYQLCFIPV
# Procedure: as §1, §2, §3
# CYP3A4 = CYP3A4 (Homo sapiens, UniProt P08684); experiment: Cytochrome P450 inhibition, Protocol A, cDNA expressed proteins, fluorogenic substrates; format: in vitro ADME; details: % inhibition at 10 μM, cDNA expressed protein; for hCYP3A4_BFC_Pct_Inh: substrate BFC; for hCYP3A4_BQ_Pct_Inh: substrate BQ; for hCYP3A4_DBF_Pct_Inh: substrate DBF
# Sequence of CYP3A4 (P08684 whole entry): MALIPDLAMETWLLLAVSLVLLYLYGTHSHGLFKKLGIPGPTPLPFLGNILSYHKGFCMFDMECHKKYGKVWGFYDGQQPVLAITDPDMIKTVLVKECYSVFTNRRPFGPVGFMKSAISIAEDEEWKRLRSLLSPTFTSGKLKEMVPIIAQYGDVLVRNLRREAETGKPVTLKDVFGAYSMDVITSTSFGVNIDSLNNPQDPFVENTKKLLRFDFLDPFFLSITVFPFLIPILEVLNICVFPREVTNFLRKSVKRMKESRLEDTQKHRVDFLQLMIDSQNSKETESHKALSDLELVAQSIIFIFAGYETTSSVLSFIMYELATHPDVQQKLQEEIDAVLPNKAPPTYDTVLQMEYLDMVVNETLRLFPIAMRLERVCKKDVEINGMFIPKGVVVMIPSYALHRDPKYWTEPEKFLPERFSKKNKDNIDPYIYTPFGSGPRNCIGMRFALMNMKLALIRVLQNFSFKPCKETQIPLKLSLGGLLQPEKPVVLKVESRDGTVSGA
# Procedure: as §1, §2, §3
# [1] = system: Aspergillus fumigatus B42928; experiment: Antifungal activity in vitro (resazurin susceptibility screen), Inf. E; format: cell-based; details: Aspergillus fumigatus B42928; 27 °C, 48 hours, resa time 17 hours; read-out: Inf. E pIC50 (converted)
# Procedure: (§4) The standard susceptibility screen was performed in 96-well plates (U-bottom, Greiner Bio-One). […] These serial dilutions (10 n1) were then spotted onto test-plates that could be stored in the dark at 4° C. for a maximum period of 2 weeks. […] The different fungal species/isolates (Table 3a) were cryopreserved and 1/1000 diluted in medium just prior to use. A standard inoculum of 200 μl containing 10^3 colony-forming unit (cfu) was then added to each well. A positive control (100% growth=fungal culture without antifungal) and a negative control (0% growth ═RPMI-MOPS medium) were included on each plate. […] [table]
# Microsporum canis B68128 = experiment: Antifungal activity in vitro (resazurin susceptibility screen), Inf. B; format: cell-based; details: 27 °C, 9 days, resa time 24 hours; for IC50: Microsporum canis, B68128, Microsporum canis B68128, read-out: Inf. B pIC50 (converted)
# Procedure: (§5) The standard susceptibility screen was performed in 96-well plates (U-bottom, Greiner Bio-One). […] These serial dilutions (10 n1) were then spotted onto test-plates that could be stored in the dark at 4° C. for a maximum period of 2 weeks. […] A standard inoculum of 200 μl containing 10^3 colony-forming unit (cfu) was then added to each well. A positive control (100% growth=fungal culture without antifungal) and a negative control (0% growth ═RPMI-MOPS medium) were included on each plate.
# [2] = system: Trichophyton mentagrophytes B70554; experiment: Antifungal activity in vitro (resazurin susceptibility screen), Inf. G; format: cell-based; details: Trichophyton mentagrophytes, B70554, Trichophyton mentagrophytes B70554; 27 °C, 7 days, resa time 24 hours; read-out: Inf. G pIC50 (converted)
# Procedure: as §5
# [3] = system: Sporothrix schenkii B62482; experiment: Antifungal activity in vitro (resazurin susceptibility screen), Inf. A; format: cell-based; details: Sporothrix, B62482, Sporothrix schenkii B62482; 27 °C, 4 days, resa time 24 hours; highest in-test concentration 64 μM; read-out: Inf. A pIC50 (converted)
# Procedure: as §4
# [4] = system: Candida parapsilosis B66126; experiment: Antifungal activity in vitro (resazurin susceptibility screen), Inf. D; format: cell-based; details: Lodderomyces parapsilosis; Candida parapsilosis B66126; 37 °C, 24 hours, resa time 4 hours; read-out: Inf. D pIC50 (converted)
# Procedure: as §5
# [5] = system: Cryptococcus neoformans B66663; experiment: Antifungal activity in vitro (resazurin susceptibility screen), Inf. F; format: cell-based; details: 37 °C, 24 hours, resa time 4 hours; for IC50: Cryptococcus neoformans, B66663, Cryptococcus neoformans B66663, read-out: Inf. F pIC50 (converted)
# Procedure: as §4
# [6] = system: Trichophyton rubrum B68183; experiment: Antifungal activity in vitro (resazurin susceptibility screen), Inf. C; format: cell-based; details: Trichophyton rubrum B68183; 27 °C, 7 days, resa time 24 hours; read-out: Inf. C pIC50 (converted)
# Procedure: as §4
SMILES,hCYP2D6_AMMC_Pct_Inh (CYP2D6),hCYP1A2_CEC_Pct_Inh (CYP1A2),hCYP2C9_MFC_Pct_Inh (CYP2C9),hCYP3A4_BFC_Pct_Inh (CYP3A4),hCYP3A4_BQ_Pct_Inh (CYP3A4),hCYP3A4_DBF_Pct_Inh (CYP3A4),IC50 [1],IC50 (Microsporum canis B68128),IC50 [2],IC50 [3],melting point,IC50 [4],IC50 [5],IC50 [6],Inf. B pIC50 (Microsporum canis B68128; Microsporum canis B68128),Inf. F pIC50 ([5]; Cryptococcus neoformans B66663)
CC(=O)c1ccc(C2NCc3c(Cl)cccc3-n3cccc32)cc1.Cl (stereo not shown),53%,12%,54%,57%,57%,70%,,,,,,,,,,
CCc1ccc(C2NCc3c(Cl)cccc3-n3cccc32)cc1.Cl (stereo not shown),96%,48%,68%,64%,57%,69%,,,,,,,,,,
CCc1ccc(C2=NCc3ccc(Cl)cc3-n3cccc32)cc1,33%,40%,50%,55%,66%,70%,,,,,,,,,,
"CC(=O)c1ccc(C2NCc3ccc(Cl)cc3-n3cccc32)cc1 (stereo not shown) [Compound 8, 1-[4-(9-chloro-5,6-dihydro-4H-pyrrolo[1,2-a][1,4]benzodiazepin-4-yl)phenyl]-ethanone]",,,,,,,12.6 µM,> 63.1 µM,5.01 µM,31.6 µM,185.4 to 186.9 °C,> 63.1 µM,50.1 µM,2 µM,,
"CC(=O)c1ccc(C2NCc3c(Cl)cc(Cl)cc3-n3cccc32)cc1 (stereo not shown) [Compound 11, 1-[4-(7,9-dichloro-5,6-dihydro-4H-pyrrolo[1,2-a][1,4]benzodiazepin-4-yl)phenyl]-ethanone]",,,,,,,> 63.1 µM,,5.01 µM,50.1 µM,204.8 to 206.6 °C,> 63.1 µM,,2 µM,6.0,5.2
"CC(=O)c1ccc(C2NCc3cc(Cl)cc(Cl)c3-n3cccc32)cc1.Cl (stereo not shown) [Compound 14, 1-[4-(8,10-dichloro-5,6-dihydro-4H-pyrrolo[1,2-a][1,4]benzodiazepin-4-yl)phenyl]-ethanone .HCl]",,,,,,,> 63.1 µM,2.51 µM,25.1 µM,25.1 µM,259.3 to 264.5 °C,> 63.1 µM,50.1 µM,0.631 µM,,
"CS(=O)(=O)c1ccc(C2=NCc3c(F)cccc3-n3cccc32)cc1 [Compound 29, 7-fluoro-4-[4-(methylsulfonyl)phenyl]-6H-pyrrolo[1,2-a][1,4]benzodiazepine]",,,,,,,50.1 µM,10 µM,6.31 µM,> 63.1 µM,92 to 95 °C,> 63.1 µM,31.6 µM,2.51 µM,,
"CS(=O)(=O)c1cccc(C2=NCc3c(Cl)cc(Cl)cc3-n3cccc32)c1 [Compound 31, 7,9-dichloro-4-[3-(methylsulfonyl)phenyl]-6H-pyrrolo[1,2-a][1,4]benzodiazepine]",,,,,,,> 63.1 µM,> 63.1 µM,> 63.1 µM,> 63.1 µM,221.2 to 221.5 °C,> 63.1 µM,> 63.1 µM,> 63.1 µM,,

# More lines, main results first:
hCYP2D6_AMMC_Pct_Inh (CYP2D6),hCYP1A2_CEC_Pct_Inh (CYP1A2),hCYP2C9_MFC_Pct_Inh (CYP2C9),hCYP3A4_BFC_Pct_Inh (CYP3A4),hCYP3A4_BQ_Pct_Inh (CYP3A4),hCYP3A4_DBF_Pct_Inh (CYP3A4),SMILES,IC50 [1],IC50 (Microsporum canis B68128),IC50 [2],IC50 [3],melting point,IC50 [4],IC50 [5],IC50 [6],Inf. B pIC50 (Microsporum canis B68128; Microsporum canis B68128),Inf. F pIC50 ([5]; Cryptococcus neoformans B66663)
20%,21%,69%,7%,50%,40%,CC(=O)c1ccc(C2=NCc3ccc(Cl)cc3-n3cccc32)cc1 [drawing 86],,,,,,,,,,
18%,33%,82%,2%,33%,21%,CC(=O)c1ccc(C2=NCc3c(Cl)cccc3-n3cccc32)cc1 [drawing 88],,,,,,,,,,
52%,60%,41%,45%,62%,64%,CCc1ccc(C2=NCc3c(Cl)cccc3-n3cccc32)cc1 [drawing 89],,,,,,,,,,
5%,5%,48%,5%,17%,1%,CS(=O)(=O)c1ccc(C2=NCc3c(Cl)cccc3-n3cccc32)cc1 [drawing 90],,,,,,,,,,
